Reference: patent EP0417790B1, “S-triazolo[3,4-i]purine derivatives” (Kyowa Hakko Kogyo Co., Ltd., priority 1989, dated 1991)
Read-outs that look alike come from different tables or passages of the source.

What was measured:
male dd-mice = experiment: Acute toxicity; format: in vivo; details: Minimum lethal dose, oral, mortality observed for seven days
Protocol: The compounds were orally administrated to male dd-mice weighing 20 ± 1 g. Minimum lethal dose (MLD) was determined by observing the mortality for seven days after the administration.

Wistar male rats = experiment: Diuretic activity; format: in vivo; details: Rattus norvegicus, po, 25 mg/kg orally, urine taken for 6 hours
Protocol: Wistar male rats weighing 150 to 300 g were used after fasting for 18 hours. […] The test was performed using 3 groups per test compound, and each group consists of 3 animals. The urine was metered by a measuring cylinder and electrolytes (Na^+ and K^+) in the urine were analyzed by flame photometer (model […]: Hitachi Ltd.). Parameters in Table 3 are represented by relative value for control.

trachea = experiment: Passive Schultz-Dale reaction (broncho-dilatory effect) on isolated tracheal strips; details: Cavia porcellus; 50% relaxation of antigen (EWA, 1 µg/ml)-contracted tracheal strips of passively sensitized guinea pigs
Protocol: Guinea pigs were passively sensitized as follows. Hartley male guinea pigs weighing 350 to 500 g were injected intraperitoneally with rabbit anti-egg albumin (EWA) serum prepared by the method of Koda et al. [Folia pharmacol., Japon 66, 237, (1970)]. After 24 hours, the guinea pigs were stunned and exsanguinated, and then trachea was excised. The zig-zag strips of the trachea were prepared by the method of Emmerson and Mackay [J. Pharm. Pharmacol., 31, 798, (1979)]. The strips were suspended in Krebs-Henseleit solution at 37°C under aeration of a mixed gas of 95% oxygen and 5% carbon dioxide, and incubated for one hour. Antigen (EWA) was then introduced in the solution (final concentration; 1 µg/ml), and the contraction was measured by isotonictransducer (TD-112s, made by Nihon Kohden K.K., Japan) and recorded on a recorder (Type 3066, made by Yokogawa-Hokushin Denki, K.K. Japan). After the contraction curves reached plateau the compounds were successively added in order to get cumulative concentration-relaxation curves. Concentration of 50% relaxation rate (IC50) was calculated from the regression line, which was obtained from cumulative concentration-relaxation curves.

[1] = relative value for control (1.00), read-out: Na^+/K^+
[2] = relative value for control (100), read-out: Excretion of K^+
[3] = relative value for control (100), read-out: Excretion of Na^+
[4] = relative value for control (100), read-out: Urine volume

SMILES | MLD (male dd-mice) [mg/kg] | response vs control in vivo at 25 mg/kg (Wistar male rats; [1]) [%] | response vs control in vivo at 25 mg/kg (Wistar male rats; [2]) [%] | response vs control in vivo at 25 mg/kg (Wistar male rats; [3]) [%] | response vs control in vivo at 25 mg/kg (Wistar male rats; [4]) [%] | IC50 (trachea) [µM]
CCCn1c(=O)n2c(-c3ccc(C(F)(F)F)cc3)nnc2c2c1ncn2C [Compound 15, 6,9-Dihydro-9-methyl-6-n-propyl-3-(4-trifluoromethylphenyl)-5H-1,2,4-triazolo[3,4-i]purin-5-one] | >300 |  |  |  |  | 
CCCn1c(=O)n2c(-c3ccc(F)cc3)nnc2c2c1ncn2C [Compound 17, 6,9-Dihydro-3-(4-fluorophenyl)-9-methyl-6-n-propyl-5H-1,2,4-triazolo[3,4-i]purin-5-one] | >300 | 142 | 134 | 179 | 178 | 
Cn1cnc2c1c1nnc(-c3ccccc3)n1c(=O)n2-c1ccccc1 [Compound 29, 6,9-Dihydro-3,6-diphenyl-9-methyl-5H-1,2,4-triazolo[3,4-i]-purin-5-one] | >300 | 141 | 110 | 155 | 170 | 
CCCn1c(=O)n2c(-c3cc(Cl)ccc3Cl)nnc2c2c1ncn2C [Compound 19, 3-(2,5-Dichlorophenyl)-6,9-dihydro-9-methyl-6-n-propyl-5H-1,2,4-triazolo[3,4-i]purin-5-one] | >300 |  |  |  |  | 
CCCn1c(=O)n2c(-c3ccc(C)cc3)nnc2c2c1ncn2C [Compound 14, 6,9-Dihydro-9-methyl-3-(4-methylphenyl)-6-n-propyl-5H-1,2,4-triazolo[3,4-i]purin-5-one] | >300 |  |  |  |  | 45
CCCn1c(=O)n2c(-c3ccccc3)nnc2c2c1ncn2C [Compound 1, 6,9-Dihydro-9-methyl-3-phenyl-6-n-propyl-5H-1,2,4-triazolo-[3,4-i]purin-5-one] | 100 | 318 | 87 | 226 | 255 | 4.1
CCCn1cnc2c1c1nnc(-c3ccncc3)n1c(=O)n2CCC [Compound 40Sa] | 100 | 97 | 136 | 132 | 155 | 
CCCn1c(=O)n2c(C)nnc2c2[nH]c(C3CCCC3)nc21 [Compound 27, 8-Cyclopentyl-6,9-dihydro-3-methyl-6-n-propyl-5H-1,2,4-triazolo[3,4-i]purin-5-one] | >300 |  |  |  |  | 
Cn1cnc2c1c1nnc(-c3ccccc3)n1c(=O)n2Cc1ccccc1 [Compound 28, 6-Benzyl-6,9-dihydro-9-methyl-3-phenyl-5H-1,2,4-triazolo-[3,4-i]purin-5-one] | >300 |  |  |  |  | 
CCCn1c(=O)n2c(-c3cccs3)nnc2c2[nH]cnc21 [Compound 33, 6,9-Dihydro-6-n-propyl-3-(2-thienyl)-5H-1,2,4-triazolo[3,4-i]purin-5-one] | >300 |  |  |  |  | 
CCCn1c(=O)n2c(=S)[nH]nc2c2c1ncn2C [Compound 46, 9-Methyl-6-n-propyl-2,2,6,9-tetrahydro-3-thioxo-5H-1,2,4-triazolo[3,4-i]purin-5-one] | >300 |  |  |  |  | 
CCCn1c(=O)n2c(-c3ccccc3)nnc2c2[nH]c(C3CCCC3)nc21 [Compound 26, 8-Cyclopentyl-6,9-dihydro-6-n-propyl-3-phenyl-5H-1,2,4-triazolo[3,4-i]purin-5-one] | >300 |  |  |  |  | 
CCCn1c(=O)n2c(-c3ccncc3)nnc2c2c1ncn2Cc1ccccc1 [Compound 39, 9-Benzyl-6,9-dihydro-6-n-propyl-3-(4-pyridyl)-5H-1,2,4-triazolo[3,4-i]purin-5-one] | >300 | 127 | 145 | 184 | 185 | 
CCn1nc2c3c(ncn3C)n(Cc3ccccc3)c(=O)n2c1=O [Compound 49, 6-Benzyl-2-ethyl-9-methyl-2,5,6,9-tetrahydro-3H-1,2,4-triazolo[3,4-i]purin-2,5-dione] |  | 161 | 173 | 279 | 300 | 
CCCn1c(=O)n2c(=O)n(CC)nc2c2c1ncn2C [Compound 48, 2-Ethyl-9-methyl-6-n-propyl-2,5,6,9-tetrahydro-3H-1,2,4-triazolo[3,4-i]purin-2,5-dione] | >300 |  |  |  |  | 
CCCn1c(=O)n2cnnc2c2c1ncn2C [Compound 36, 6,9-Dihydro-9-methyl-6-n-propyl-5H-1,2,4-triazolo[3,4-i]purin-5-one] | 300 |  |  |  |  | 
CCCn1c(=O)n2c(-c3ccc(C(=O)OC)cc3)nnc2c2c1ncn2C [Compound 22, 6,9-Dihydro-3-(4-methoxycarbonylphenyl)-9-methyl-6-n-propyl-5H-1,2,4-triazolo[3,4-i]purin-5-one] | >300 |  |  |  |  | 
CCCn1c(=O)n2c(-c3ccccc3N)nnc2c2c1ncn2C [Compound 13, 3-(2-Aminophenyl)-6,9-dihydro-9-methyl-6-n-propyl-5H-1,2,4-triazolo[3,4-i]purin-5-one] | >300 |  |  |  |  | 
Cc1nnc2c3[nH]cnc3n(Cc3ccccc3)c(=O)n12 [Compound 37, 6-Benzyl-6,9-dihydro-3-methyl-5H-1,2,4-triazolo[3,4-i]purin-5-one] | >300 |  |  |  |  | 
CCCn1c(=O)n2c(-c3ccc([N+](=O)[O-])cc3)nnc2c2c1ncn2C [Compound 16, 6,9-Dihydro-9-methyl-3-(4-nitrophenyl)-6-n-propyl-5H-1,2,4-triazolo[3,4-i]purin-5-one] | >300 | 111 | 175 | 194 | 170 | 
CCCn1c(=O)n2c(-c3ccc(Cl)c(Cl)c3)nnc2c2c1ncn2C [Compound 20, 3-(3,4-Dichlorophenyl)-6,9-dihydro-9-methyl-6-n-propyl-5H-1,2,4-triazolo[3,4-i]purin-5-one] | >300 |  |  |  |  | 
Cn1cnc2c1c1n[nH]c(=O)n1c(=O)n2Cc1ccccc1 [Compound 42, 6-Benzyl-9-methyl-2,5,6,9-tetrahydro-3H-1,2,4-triazolo[3,4-i]purin-3,5-dione] | >300 |  |  |  |  | 
CCCn1c(=O)n2c(-c3ccc(C(=O)O)cc3)nnc2c2c1ncn2C [Compound 23, 6,9-Dihydro-3-(4-carboxyphenyl)-9-methyl-6-n-propyl-5H-1,2,4-triazolo[3,4-i]purin-5-one] | >300 |  |  |  |  | 
CCCn1c(=O)n2c(-c3cccs3)nnc2c2c1ncn2C [Compound 2, 6,9-Dihydro-9-methyl-6-n-propyl-3-(2-thienyl)-5H-1,2,4-triazolo[3,4-i]purin-5-one] | 300 |  |  |  |  | 0.4
NS(=O)(=O)c1cc(C(=O)O)c(NCc2ccco2)cc1Cl [Furosemide, reference compound] |  | 105 |  |  |  | 
CCCn1c(=O)n2c(-c3ccc(OC)c(OC)c3)nnc2c2c1ncn2C [Compound 21, 6,9-Dihydro-3-(3,4-dimethoxyphenyl)-9-methyl-6-n-propyl-5H-1,2,4-triazolo[3,4-i]purin-5-one] | >300 |  |  |  |  | 
CCCn1c(=O)n2c(-c3ccccc3OC)nnc2c2c1ncn2C [Compound 7, 6,9-Dihydro-3-(2-methoxyphenyl)-9-methyl-6-n-propyl-5H-1,2,4-triazolo[3,4-i]purin-5-one] | 300 | 133 | 122 | 162 | 173 | 
CCCn1c(=O)n2c(-c3ccc(N(C)C)cc3)nnc2c2c1ncn2C [Compound 18, 6,9-Dihydro-3-(4-dimethylaminophenyl)-9-methyl-6-n-propyl-5H-1,2,4-triazolo[3,4-i]purin-5-one] | >300 | 109 | 129 | 141 | 155 | 
CCCn1c(=O)n2c(=O)[nH]nc2c2[nH]c(C3CCCC3)nc21 [Compound 43, 8-Cyclopentyl-6-n-propyl-2,5,6,9-tetrahydro-3H-1,2,4-triazolo[3,4-i]purin-3,5-dione] | >300 |  |  |  |  | 
CCCn1c(=O)n2c(-c3cccnc3)nnc2c2[nH]cnc21 [Compound 32, 6,9-Dihydro-6-n-propyl-3-(3-pyridyl)-5H-1,2,4-triazolo[3,4-i]purin-5-one] |  | 152 | 129 | 196 | 195 | 
